From US11028103B2, “Derivatized 3-styryl-cephalosporins” (priority 2013, dated 2021) come the findings set out here.

What all share (type): biochemical
Assay [1] addresses T1, IMP-1 (Serratia marcescens, UniProt P52699).
T1 construct: made in house
As to the kind of experiment: 10 minute IC50 β-lactamase inhibition assay (Chromacef hydrolysis). As to conditions: 10 min preincubation, 300 μM Chromacef, pH 7.0, 30° C. The source says:
(§1) A chromogenic cephalosporin, Chromacef, is synthesized and isolated as described by Yu, et al. (Yu S; Vosbeek, A; Corbella, K; Severson, J; Schesser, J; and Sutton, L D. A chromogenic cephalosporin for fJ-lactamase inhibitor screening assays (2012) Analytical Biochemistry, 438, 96-98) and used to monitor β-lactamase activity. β-Lactamase enzymes are isolated from bacteria by methods known to those knowledgeable in the art. A typical assay monitors the hydrolysis of Chromacef via the formation of a species which absorbs maximally at 442 nm (molar extinction coefficient=14,500). Absorption is monitored as a function of time in buffer (either 50 mM, pH 7.0 sodium phosphate or 100 mM, pH 7.0 Trisma buffer supplemented with 100 μM ZnCl2), 100-300 μM Chromacef and 1-3 volume percent DMSO cosolvent at 30° C. using a spectrophotometer having thermal-regulated cuvette holder. The assay is initiated by addition and mixing of an appropriate amount of β-lactamase.
(§2) The 100% activity control is performed as described above using 300 μM Chromacef, 3 volume percent DMSO cosolvent in buffer (either 50 mM, pH 7.0 sodium phosphate or 100 mM, pH 7.0 Trisma buffer supplemented with 100 μM ZnCl2) at 30° C. The reaction is initiated by addition and mixing of an appropriate amount of β-lactamase and the formation of product is followed as a function of time by monitoring the increase in absorbance at 442 nm as a function of time. The reaction is followed through <10% completeness and the initial rate determined via linear least squares analysis where the slope is the initial rate.
(§3) Ten-minute inhibition assays are performed as described above using 50-500 μM inhibitor cephalosporin, 0.5-5 volume percent DMSO cosolvent, and the same amount of enzyme as used in the control assay in buffer (either 50 mM, pH 7.0 sodium phosphate or 100 mM, pH 7.0 Trisma buffer supplemented with 100 μM ZnCl2) at 30° C. The reaction is initiated by after 10 minutes points by the addition and mixing of an appropriate amount of Chromacef to give a 300 μM concentration and the formation of product is followed as a function of time by monitoring the increase in absorbance at 442 nm as a function of time. The reaction is followed through <10% completeness and the initial rate determined via linear least squares analysis where the slope is the initial rate.

The target in assay [2] is T2, NDM-1 (Klebsiella pneumoniae, UniProt C7C422).
T2 construct: made in house
The assay is described as above. As to conditions: 10 min preincubation, 300 μM Chromacef, pH 7.0, 30° C.
From the text: as §1, §2, §3

Assay [3] has as its target T3, VIM-2 (Escherichia coli, UniProt Q5U7L7).
T3 construct: made in house
Described as above. As to conditions: 10 min preincubation, 300 μM Chromacef, pH 7.0, 30° C.
From the text: as §1, §2, §3

Assay [4] deals with T4, KPC-3 (Klebsiella pneumoniae, UniProt Q9F663, H272Y).
T4 construct: made in house
The assay is described as above. Conditions: 10 min preincubation, 300 μM Chromacef, pH 7.0, 30° C.
From the text: as §1, §2, §3

The target in assay [5] is T2, NDM-1. As to the kind of experiment: Assay for determining irreversible β-lactamase inhibition (500-fold dilution). Conditions: FIG. 2. How it is done: as §2
Inhibition of β-lactamase was performed at a concentration of β-lactamase 500 times greater than used in the control assay, and 50-500 μM cephalosporin inhibitor, buffer (either 50 mM, pH 7.0 sodium phosphate or 100 mM, pH 7.0 Trisma buffer supplemented with 100 μM ZnCl2), 0.5-5 volume percent DMSO cosolvent for various times. Activity assays were performed the same as the control reaction except 2.00 μL of this inhibition solution were substituted for the uninhibited enzyme solution resulting in a 500-fold dilution of inhibitor to eliminate any competitive binding of inhibitor to enzyme.

Molecules are shown by their SMILES.

T2 sequence (C7C422 29-270, looked up, species assumed): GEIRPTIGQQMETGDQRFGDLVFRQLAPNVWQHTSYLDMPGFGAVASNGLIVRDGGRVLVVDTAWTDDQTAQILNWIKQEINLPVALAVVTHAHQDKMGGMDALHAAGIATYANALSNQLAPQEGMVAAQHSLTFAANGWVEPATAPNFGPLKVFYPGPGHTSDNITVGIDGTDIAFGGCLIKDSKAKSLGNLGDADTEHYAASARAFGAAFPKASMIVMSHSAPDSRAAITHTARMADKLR
T1 sequence (P52699 19-246, looked up, species assumed): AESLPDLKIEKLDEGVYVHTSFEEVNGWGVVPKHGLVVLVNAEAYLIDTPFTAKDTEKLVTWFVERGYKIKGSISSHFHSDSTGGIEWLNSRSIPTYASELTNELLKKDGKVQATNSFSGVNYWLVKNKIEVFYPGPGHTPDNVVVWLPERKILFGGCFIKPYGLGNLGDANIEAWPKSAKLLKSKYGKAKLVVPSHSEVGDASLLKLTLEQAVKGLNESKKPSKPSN
T4 sequence (Q9F663 25-293 H272Y): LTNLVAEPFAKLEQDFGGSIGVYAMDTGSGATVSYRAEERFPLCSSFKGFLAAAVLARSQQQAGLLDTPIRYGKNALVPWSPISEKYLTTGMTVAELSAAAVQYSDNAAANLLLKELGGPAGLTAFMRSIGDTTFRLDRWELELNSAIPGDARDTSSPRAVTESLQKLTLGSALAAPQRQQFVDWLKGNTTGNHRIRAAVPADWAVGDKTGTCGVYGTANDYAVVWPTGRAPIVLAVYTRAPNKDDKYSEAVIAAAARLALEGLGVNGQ

In general, IC50 refers to the point on the concentration scale where inhibition reaches its midpoint. Read a high IC50 as a need for much substance. As for `O=C(Cc1ccccc1)NC1C(=O)N2C(C(=O)O)=C(C=Cc3ccc(CCl)cc3)CS[C@H]12` (some centres unmarked) [II-Cl/benzyl, 3-(4-(chloromethyl)styryl)-7-(2-phenylacetamido)-ceph-3-em-4-carboxylic acid], the IC50 in assay [1] is 61.8 µM; in assay [2], 6.4 µM; in assay [3] it was 10.7 µM.

As for `O=C(Cc1ccccc1)NC1C(=O)N2C(C(=O)O)=C(C=Cc3ccc(CCl)cc3[N+](=O)[O-])CS[C@H]12` (some centres unmarked) [III-Cl/benzyl, 3-(2-nitro-4-(chloromethyl)styryl)-7-(2-phenylacetamido)-ceph-3-em-4-carboxylic acid], the IC50 in assay [1] was 0.584 µM; in assay [2], 0.584 µM; in assay [4], 0.973 µM. Moreover, the “irreversibility of the inhibition” value in assay [5] (activity after 500-fold dilution of inhibitor) is “irreversibility of the inhibition”. Also, the “time-dependency of the inhibition” value in assay [5] (various incubation times) is “time-dependency of the inhibition”.
